In this assay the target is T1, Human Kv1.5 channels (Homo sapiens, UniProt P22460).
T1 construct: expressed in transfected cells; host or cells: Xenopus laevis oocytes injected with in vitro synthesized Kv1.5-encoding RNA
As to the kind of experiment: Kv1.5 currents in Xenopus oocytes, two-microelectrode voltage clamp. The assay is classed as cell-based. Particulars: human Kv1.5 expressed in Xenopus laevis oocytes; voltage jumps 500 ms to 0 mV and 40 mV; room temperature; Hill equation. The protocol: Human Kv1.5 channels were expressed in Xenopus oocytes. For this purpose, firstly ooytes were isolated from Xenopus laevis and were defolliculated. Kv1.5-encoding RNA which had been synthesized in vitro was then injected into these oocytes. After 1-7 days of Kv1.5 protein expression, the Kv1.5 currents were measured on the oocytes by the two-microelectrode voltage clamp technique. The Kv1.5 channels were for this purpose usually activated with voltage jumps lasting 500 ms to 0 mV and 40 mV. A solution of the following composition flowed through the bath: NaCl 96 mM, KCl 2 mM, CaCl2 1.8 mM, MgCl2 1 mM, HEPES 5 mM (titrated to pH 7.4 with NaOH). These experiments were carried out at room temperature. The following were employed for data acquisition and analysis: geneclamp amplifier (Axon Instruments, Foster City, USA) and MacLab D/A converter and software (ADInstruments, Castle Hill, Australia). The compounds of the invention were tested by adding them in various concentrations to the bath solution. The effects of the compounds were calculated as percentage inhibition of the Kv1.5 control current which was obtained when no compound was added to the solution. The data were then extrapolated using the Hill equation in order to determine the inhibitory concentrations IC50 for the respective compounds.

From patent publication US7332608B2, “Anthranilamides and methods of their use” (SANOFI-AVENTIS Deutschland GmbH, priority 2001, dated 2008) come the findings set out here.

T1 sequence (P22460 whole entry): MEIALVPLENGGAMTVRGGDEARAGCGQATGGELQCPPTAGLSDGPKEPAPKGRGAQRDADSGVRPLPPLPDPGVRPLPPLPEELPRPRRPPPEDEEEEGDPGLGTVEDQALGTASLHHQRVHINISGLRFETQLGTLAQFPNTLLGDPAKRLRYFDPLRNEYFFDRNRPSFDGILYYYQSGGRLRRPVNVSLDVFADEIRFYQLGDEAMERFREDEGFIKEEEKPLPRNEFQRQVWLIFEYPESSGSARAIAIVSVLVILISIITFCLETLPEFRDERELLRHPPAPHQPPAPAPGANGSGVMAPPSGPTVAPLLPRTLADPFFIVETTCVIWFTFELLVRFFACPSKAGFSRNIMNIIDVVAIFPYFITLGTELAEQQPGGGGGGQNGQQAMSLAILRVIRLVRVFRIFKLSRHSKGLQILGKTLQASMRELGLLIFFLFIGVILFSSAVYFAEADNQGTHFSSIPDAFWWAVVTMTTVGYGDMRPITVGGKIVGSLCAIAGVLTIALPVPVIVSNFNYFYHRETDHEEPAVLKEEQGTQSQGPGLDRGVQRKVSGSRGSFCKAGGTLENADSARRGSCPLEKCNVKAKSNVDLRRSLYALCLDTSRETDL

What is called IC50 is the concentration at which inhibition is half-maximal. `CC[C@H](NC(=O)c1ccccc1NS(=O)(=O)c1ccc(C(F)(F)F)cc1)c1ccccc1` [Example 66] yielded an IC50 of 4000 nM.

`CC[C@@H](NC(=O)c1cc(Cl)ccc1NS(=O)(=O)c1ccccc1)c1ccccc1` [Example 4, (R)-2-Phenylsulfonylamino-5-chloro-N-(1-phenylpropyl)benzamide]: the IC50 was found to be 4100 nM.

Compound `CCN(C(=O)c1cc(F)ccc1NS(=O)(=O)c1ccc(C)cc1)C1CCCCC1` [Example 15] showed a half-maximal inhibitory concentration (IC50) of 7800 nM.

Regarding `Cc1ccc(NS(=O)(=O)c2ccccc2)c(C(=O)NC2CCCCC2)c1` [Example 21], the IC50 came to 5200 nM. Against the preceding compound, the IC50 is about 1.5-fold lower.

In turn, `COc1ccc([C@H](C)NC(=O)c2cc(Cl)ccc2NS(=O)(=O)c2ccccc2)cc1` [Example 5, (S)-2-Phenylsulfonylamino-5-chloro-N-[1-(4-methoxyphenyl)ethyl]-benzamide] showed a half-inhibitory concentration (IC50) of 4500 nM.

The compound `Cc1ccc(S(=O)(=O)Nc2ccccc2C(=O)N(Cc2cccnc2)CC2CC2)cc1` [Example 34] returned an IC50 of 3100 nM.

`COc1ccc(S(=O)(=O)Nc2cc(C)ccc2C(=O)NC2CCCCC2)cc1` [Example 25] came in with an IC50 of 3400 nM.

Regarding `CC[C@H](NC(=O)c1cc(O)ccc1NS(=O)(=O)c1ccc(C)cc1)c1ccccc1` [Example 152, 5-Hydroxy-N-(1-phenylpropyl)-2-(toluene-4-sulfonylamino)benzamide], 2600 nM corresponded to half-maximal inhibition (IC50).

Turning to `O=C(c1ccccc1NS(=O)(=O)c1ccc(Cl)cc1)N(Cc1ccccc1)Cc1cccnc1` [Example 44], the IC50 was found to be 2900 nM. This IC50 and that of the compound before are within 1.5-fold of each other.

For `Cc1ccc(S(=O)(=O)Nc2ccccc2C(=O)N(Cc2cccc(C)n2)Cc2ccco2)cc1` [Example 121], the IC50 was 600 nM.

For `Cc1cccc(NS(=O)(=O)c2ccc(Cl)cc2)c1C(=O)NC(C)c1ccccc1` (stereo not shown) [Example 23], the IC50 came to 5000 nM.

`Cc1ccc(S(=O)(=O)Nc2ccccc2C(=O)N(Cc2nccs2)CC2CCCCC2)cc1` [Example 119] came in with a half-inhibitory concentration (IC50) of 2700 nM.

Regarding `CCN(C(=O)c1cc(Cl)ccc1NS(=O)(=O)c1ccc(C)cc1)C1CCCCC1` [Example 16], the IC50 came to 6400 nM.

For `Cc1ccc(S(=O)(=O)Nc2ccc(F)cc2C(=O)N(Cc2ccc(F)cc2)Cc2nccn2C)cc1` [Example 107], the IC50 came out at 900 nM.

Turning to `Cc1ccc(S(=O)(=O)Nc2ccccc2C(=O)NC(C)c2ccccc2)cc1` (stereo not shown) [Example 28], the IC50 came out at 3200 nM.

For `O=C(NC1CCCCC1)c1cc(Cl)ccc1NS(=O)(=O)c1ccccc1` [Example 17], inhibition was half-maximal at 7500 nM (IC50).

As to `COc1ccc(NS(=O)(=O)c2ccc(C)cc2)c(C(=O)NC(C)(C)c2ccccc2)c1` [Example 103], the IC50 is 1400 nM.

For the compound `Cc1ccc(S(=O)(=O)Nc2ccccc2C(=O)N(Cc2ccccc2)CC2CCCCC2)cc1` [Example 31], it took 2600 nM to reach half-maximal inhibition (IC50).

Regarding `CCCCS(=O)(=O)Nc1ccc(C)cc1C(=O)NC(CC)Cc1cccnc1` (stereo not shown) [Example 138], half-maximal inhibition (IC50) required 1800 nM. The IC50 values of the last two compounds are within 1.5-fold of each other.

Consider `Cc1ccc(S(=O)(=O)Nc2cc(C)ccc2C(=O)N(Cc2ccccc2)Cc2nccn2C)cc1` [Example 40], for which the IC50 turned out to be 800 nM.

In turn, `Cc1ccc(S(=O)(=O)Nc2ccc(F)cc2C(=O)N(Cc2ccccc2)Cc2nccn2C)cc1` [Example 81] registered an IC50 of 400 nM. This IC50 lies about 2-fold lower than the previous one.

Consider `Cc1ccc(S(=O)(=O)Nc2ccccc2C(=O)N(Cc2ccccc2)Cc2cccn2C)cc1` [Example 83], for which 1900 nM corresponded to half-maximal inhibition (IC50).

Regarding `COc1ccc(NS(=O)(=O)c2ccc(C)cc2)c(C(=O)NC(c2ccccn2)C2CC2)c1` (stereo not shown) [Example 124], the half-inhibitory concentration (IC50) amounted to 1000 nM.

In the case of `CC[C@H](NC(=O)c1ccccc1NS(=O)(=O)c1ccc2ccccc2c1)c1ccccc1` [Example 61], half-maximal inhibition (IC50) required 5600 nM.

The compound `Cc1ccc(S(=O)(=O)Nc2ccccc2C(=O)N(Cc2ccc(F)cc2)Cc2cccc(C)n2)cc1` [Example 117] displayed an IC50 of 2400 nM.

In the case of `CC[C@H](NC(=O)c1cc(OC)ccc1NS(=O)(=O)c1ccc(OC)cc1)c1ccccc1` [Example 150], the IC50 was 300 nM.

Consider `CC[C@H](NC(=O)c1cc(OC)ccc1NS(=O)(=O)C(C)C)c1ccccc1` [Example 149], for which the IC50 came to 2200 nM.

In turn, `CCCCS(=O)(=O)N(CC)c1ccccc1C(=O)N[C@@H](CC)c1ccccc1` [Example 57] showed an IC50 of 5000 nM.

Regarding `CCCCS(=O)(=O)Nc1ccc(C)cc1C(=O)N[C@H](CC)c1ccccc1` [Example 114], the midpoint of inhibition, the IC50, lay at 1400 nM.

`Cc1ccc(S(=O)(=O)Nc2ccccc2C(=O)N(Cc2ccccc2)Cc2nc3ccccc3[nH]2)cc1` [Example 35] registered an IC50 of 2000 nM.

As for `Cc1ccc(S(=O)(=O)Nc2ccccc2C(=O)N(Cc2ccccc2)Cc2nccs2)cc1` [Example 84], the IC50 turned out to be 1000 nM.

With `CCC(NC(=O)c1cc(OC)ccc1NS(=O)(=O)c1ccc(C)cc1)c1ccccc1` (stereo not shown) [Example 26], 600 nM corresponded to half-maximal inhibition (IC50). Against the preceding compound, the IC50 is about 1.7-fold lower.

Turning to `CC[C@H](NC(=O)c1ccccc1NS(=O)(=O)c1cccc2c(N(C)C)cccc12)c1ccccc1` [Example 65], it took 4800 nM to reach half-maximal inhibition (IC50).

For the compound `CCN(C(=O)c1ccccc1NS(=O)(=O)c1ccc(C)cc1)C1CCCCC1` [Example 12], the midpoint of inhibition, the IC50, lay at 5400 nM.

`CCCCS(=O)(=O)Nc1ccccc1C(=O)N(Cc1cccnc1)Cc1cccc(C)n1` [Example 123] displayed an IC50 of 2900 nM.

In turn, `COc1ccc(NS(=O)(=O)c2ccc(C)cc2OC)c(C(=O)NC2CCC(C)CC2)c1` (stereo not shown) [Example 27] came in with an IC50 of 5600 nM.

`Cc1ccc(S(=O)(=O)Nc2ccccc2C(=O)N(Cc2ccco2)Cc2nccn2C)cc1` [Example 122] had an IC50 of 1200 nM.

With `Cc1ccc(S(=O)(=O)Nc2ccccc2C(=O)N(Cc2ccccc2)Cc2ccc[nH]2)cc1` [Example 86], the 50% inhibitory concentration (IC50) was determined as 1800 nM.

`COc1ccc([C@@H](C)NC(=O)c2cc(Cl)ccc2NS(=O)(=O)c2ccccc2)cc1` [Example 6] gave an IC50 of 8200 nM.

`COc1ccc(S(=O)(=O)Nc2ccc(OC)cc2C(=O)NC(c2cccnc2)C2CC2)cc1` (stereo not shown) [Example 134] displayed an IC50 of 900 nM.

The compound `CCCCS(=O)(=O)Nc1ccc(C)cc1C(=O)NC(c1cccc(OC)n1)C1CC1` (stereo not shown) [Example 127] showed an IC50 of 3300 nM.

The compound `Cc1ccc(S(=O)(=O)Nc2ccccc2C(=O)N(Cc2ccccc2)Cc2ccncc2)cc1` [Example 33] registered an IC50 of 6500 nM. Against the preceding compound, the IC50 is about 2-fold higher.

`COc1ccc(NS(=O)(=O)c2ccc(C)cc2)c(C(=O)N(Cc2ccccc2)Cc2nccn2C)c1` [Example 41] yielded an IC50 of 1900 nM.

`Cc1ccc(S(=O)(=O)Nc2ccccc2C(=O)N(Cc2cccnc2)Cc2cccc(C)n2)cc1` [Example 118] returned a half-inhibitory concentration (IC50) of 2200 nM.

In turn, `CCC(NC(=O)c1cc(OC)ccc1NS(=O)(=O)c1ccc(C)cc1)c1ccc(C)nc1` (stereo not shown) [Example 141] showed a half-inhibitory concentration (IC50) of 1100 nM.

On to `Cc1ccc(S(=O)(=O)Nc2ccc(F)cc2C(=O)N(Cc2ccc(F)cc2)Cc2ccn[nH]2)cc1` [Example 108], for which the IC50 was found to be 1200 nM.

Take `Cc1ccc(S(=O)(=O)Nc2ccc(F)cc2C(=O)N(Cc2ccccc2)Cc2cccc(C)n2)cc1` [Example 101]: the IC50 came out at 900 nM.

`Cc1ccc(S(=O)(=O)Nc2ccccc2C(=O)N(CCCn2ccnc2)Cc2ccccc2)cc1` [Example 32]: inhibition was half-maximal at 8500 nM (IC50).

Consider `CC[C@H](NC(=O)c1ccccc1NS(=O)(=O)CCC(C)C)c1ccccc1` [Example 74], for which the IC50 was found to be 1700 nM.

`CCCCS(=O)(=O)Nc1ccccc1C(=O)N[C@@H](CC)c1ccccc1` [Example 58] gave an IC50 above 10000 nM.

Regarding `Cc1ccc(S(=O)(=O)Nc2ccccc2C(=O)N(Cc2cccc(C)n2)CC2CCCO2)cc1` (stereo not shown) [Example 120], the IC50 came to 1400 nM.

With `Cc1ccc(S(=O)(=O)Nc2ccccc2C(=O)N(Cc2cnc3ccccc3c2)CC2CC2)cc1` [Example 87], half-maximal inhibition (IC50) required 6000 nM.

Turning to `CCCCS(=O)(=O)Nc1ccc(C)cc1C(=O)NC(CC)c1ccc(C)o1` (stereo not shown) [Example 136], the IC50 stood at 900 nM.

Consider `Cc1ccc(S(=O)(=O)Nc2ccc(F)cc2C(=O)N(Cc2ccccc2)Cc2ccn[nH]2)cc1` [Example 102], for which half-maximal inhibition (IC50) was put at 700 nM.

The compound `Cc1cccc(S(=O)(=O)Nc2ccccc2C(=O)N(Cc2ccccc2)Cc2cccnc2)c1` [Example 75] displayed an IC50 of 2900 nM.

Turning to `CCCCS(=O)(=O)Nc1ccc(C)cc1C(=O)NC(c1ccc(OC)nc1)C1CC1` (stereo not shown) [Example 129], the IC50 was found to be 1300 nM.

Compound `Cc1ccc(S(=O)(=O)Nc2ccccc2C(=O)N(Cc2ccccc2)CC2CC2)cc1` [Example 37] returned an IC50 of 1900 nM.

`CCC(NC(=O)c1cc(OC)ccc1NS(=O)(=O)c1ccc(C)cc1)c1ccc(OC)nc1` (stereo not shown) [Example 139]: the IC50 is 1000 nM.

In turn, `CCCCS(=O)(=O)Nc1ccc(C)cc1C(=O)NC1CCCCC1` [Example 54, 2-(Butylsulfonylamino)-N-cyclohexyl-5-methylbenzamide] returned an IC50 of 4000 nM.

In turn, `COc1ccc(NS(=O)(=O)c2ccc(C)cc2)c(C(=O)NC(C)Cc2ccccn2)c1` (stereo not shown) [Example 133] displayed an IC50 of 1400 nM.

As to `CCc1nc(C)c(CN(Cc2ccccc2)C(=O)c2ccccc2NS(=O)(=O)c2ccc(C)cc2)[nH]1` [Example 88], half-maximal inhibition (IC50) required 3900 nM. This IC50 is about 2.8-fold higher than that of the compound before.

In turn, `COc1ccc(S(=O)(=O)Nc2cccc(C)c2C(=O)N(Cc2ccccc2)Cc2cccnc2)cc1` [Example 47] came in with an IC50 of 4700 nM.

As to `CCc1ccc(S(=O)(=O)Nc2ccccc2C(=O)N[C@@H](CC)c2ccccc2)cc1` [Example 77], the IC50 was found to be 2600 nM.

`C[C@H](c1ccccc1)N(C)C(=O)c1ccccc1NS(=O)(=O)c1ccccc1` [Example 105] registered an IC50 of 2600 nM.
